In ChEMBL document CHEMBL1148957, “Asmarines I, J, and K and nosyberkol: four new compounds from the marine sponge Raspailia sp” (2004):

Key:
Type in all cases: functional
[1] = system: LNCaP; assay: Cytotoxicity against human LNCAP cells after 72 hrs by SRB assay
[2] = system: SK-BR-3; assay: Cytotoxicity against human SK-BR-3 cells after 72 hrs by SRB assay; details: SK-BR-3, 72 h
[3] = system: LoVo; assay: Cytotoxicity against human LoVo cells after 72 hrs by SRB assay
[4] = system: PANC-1; assay: Cytotoxicity against human PANC1 cells after 72 hrs by SRB assay; details: PANC-1, 72 h
[5] = system: A549; assay: Cytotoxicity against human A549 cells after 72 hrs by SRB assay; details: A549, 72 h
[6] = system: DU-145; assay: Cytotoxicity against human DU145 cells after 72 hrs by SRB assay; details: DU-145, 72 h
[7] = system: SK-OV-3; assay: Cytotoxicity against human SKOV3 cells after 72 hrs by SRB assay; details: SK-OV-3, 72 h
[8] = system: SK-MEL-28; assay: Cytotoxicity against human SK-MEL-28 cells after 72 hrs by SRB assay; details: SK-MEL-28, 72 h
[9] = system: HT-29; assay: Cytotoxicity against human HT29 cells after 72 hrs by SRB assay; details: HT-29, 72 h
[10] = system: LoVo; assay: Cytotoxicity against human doxorubicin-resistant LoVo cells after 72 hrs by SRB assay
[11] = Cytotoxicity against human IGROV-ET cells after 72 hrs by SRB assay
[12] = system: K562; assay: Cytotoxicity against human K562 cells after 72 hrs by SRB assay; details: K562, 72 h
[13] = Cytotoxicity against human IGROV cells after 72 hrs by SRB assay

Measured: GI50

C[C@H]1CC[C@@]23C[C@]2(C)CCC[C@@H]3[C@@]1(C)CC[C@@]1(C)CCn2cnc3ncnc(c32)N1O [ASMARINE I]
5 µM: all assays above

C=C1CCC[C@@H]2[C@@](C)(CC[C@@]3(C)CCn4cnc5ncnc(c54)N3)[C@H](C)CC[C@@]12C [ASMARINE K]
5 µM: all assays above

C[C@H]1CC[C@@]23C[C@]2(C)CCC[C@@H]3[C@@]1(C)CC[C@@]1(C)CCn2cnc3ncnc(c32)N1 [ASMARINE J]
5 µM: all assays above
